In patent US20260109678A1, “SUBSTITUTED PHENOTHIAZINES AS FERROPTOSIS INHIBITORS” (Universiteit Antwerpen, priority 2022, published 2026):
≈ marks a conversion by molar mass, not a printed value. Counter-ions that a name gives are not always drawn.

Assays:
[1] = Fluorescence-enabled inhibited autoxidation (FENIX) assay; assay type: biochemical; conditions: RTA 2 μM, liposomes 1 mM; for Logkinh: FENIX assay; for kinh (10^4 M^−1s^−1) ± SD: inhibition rate constant, STY-BODIPY 1 μM, DTUN initiator, 37° C.
Procedure: Unless otherwise stated, laboratory reagent grade solvents were used. Reagents were obtained from various commercial sources and were used without any prior purification. L-α-phosphatidylcholine (Egg, Chicken), powder was purchased from Merck Life Science B.V.. DTUN and STY-BODIPY were synthesized according to methods described in Shah et al. (2019) Cell Chem. Biol. 26, 1594-1607. Fluorescence was measured using the UV/vis spectrophotometer Synergy MX, Biotek with Gen5.
In order to quantify radical trapping antioxidant activity in phospholipid bilayers to a clear bottom black-walled 96-well plate for fluorescence-base assays (Invitrogen by Thermo Fisher Scientific) was added 250 μL of a solution containing liposomes (1 mM), styrene-conjugated BODIPY (STY-BODIPY, 1 μM), and the respective radical trapping antioxidant (RTA, 2 μM). The solutions were made in larger volumes in Eppendorfs, pre-mixed and 250 μL aliquot was transferred to each well. The plate was incubated for 10 minutes at 37° C. in the BioTek SynergyMx plate reader, followed by a fast-mixing protocol for 5 minutes. The plate was ejected from the plate reader and autoxidation was initiated by the addition of a 50 μL aliquot of (E)-1,2-bis((2-methyldecan-2-yl)oxy)diazene (DTUN, 0.2 mM in EtOH/PBS 3/47, v/v), followed by another mixing protocol for 5 minutes. Data were acquired by excitation probes at 488 nm and emission was measured at 518 nm (read intervals 1.0 min). Kinetic read parameters: (i) optic position: bottom, (ii) gain: 80, (iii) bandwidth: 9.0. The results of the FENIX assay are presented in Table 2 as inhibition rate constants (kinh), logkinh and stoichiometries (n) of tested compounds.

[2] = Kinetic solubility (turbidimetric method); assay type: physicochemical; conditions: aqueous buffer, kinetic from dmso stock, PBS buffer pH 7.4, 2 hours at 37° C., read-out: Kin. solubility

Structure (SMILES) | Logkinh [1] | kinh (10^4 M^−1s^−1) ± SD [1] | solubility at 2 h [2] [µM]
CNCCNC(=O)c1ccc2c(c1)Sc1ccccc1N2 [CPD-033, N-(2-(methylamino)ethyl)-10H-phenothiazine-3-carboxamide dihydrochloride] | 2.68 ± 0.07 | 1.21 ± 0.01 10^4 M^−1s^−1 | –
NCCNC(=O)c1ccc2c(c1)Sc1ccccc1N2 [CPD-034, N-(2-aminoethyl)-10H-phenothiazine-3-carboxamide dihydrochloride] | 2.41 ± 0.13 | 1.23 ± 0.01 10^4 M^−1s^−1 | –
O=C(c1ccc2c(c1)Sc1ccccc1N2)N1CCNCC1 [CPD-035, (10H-phenothiazin-3-yl)(piperazin-1-yl)methanone dihydrochloride] | 2.51 ± 0.05 | 1.26 ± 0.04 10^4 M^−1s^−1 | –
O=C(NCCN1CCNCC1)c1ccc2c(c1)Sc1ccccc1N2 [CPD-036, N-(2-(piperazin-1-yl)ethyl)-10H-phenothiazine-3-carboxamide trihydrochloride] | 2.30 ± 0.09 | 1.24 ± 0.04 10^4 M^−1s^−1 | –
O=Cc1ccc2c(c1)Sc1ccccc1N2 [CPD-037, 10H-phenothiazine-3-carbaldehyde] | – | – | 12.5 to 50 (≈ 2.84 to 11.4 µg/mL)
c1ccc2c(c1)Nc1ccc(CNCCN3CCOCC3)cc1S2 [CPD-038] | 3.77 ± 0.16 | 1.03 ± 0.01 10^4 M^−1s^−1 | –
